Each compound was assayed on human foreskin fibroblasts (assay: Cytotoxicity: metabolic activity (WST-1) of quiescent fibroblasts exposed to inhibitor). Conditions: 25 μM compound, 0.5% DMSO, 48 hours, 60% or below = very sick or dead.
Assay type: cell-based
Method: C-proteinase inhibitors were studied in cytotoxicity assays wherein quiescent cells were exposed to C-proteinase inhibitors for a given time and cell viability measured. By examining cellular metabolic activity, cell viability and cell survival were determined.
C-proteinase inhibitors were tested on human foreskin fibroblasts that had been grown to confluence in 96 well microtiter plates in Dulbecco's Modified Eagle Medium (DMEM) containing 10% fetal calf serum. Shortly before adding the inhibitors, the media was removed and 90 μl per microtiter well of fresh serum-free DMEM was added to the cells. The C-proteinase inhibitors were made up as concentrated stocks containing compound at 250 μM in the presence of 5% DMSO as solvent. A concentrated stock of 10 μl was added to each microtiter well to give a final compound concentration of 25 μM in the presence of 0.5% DMSO. The cells were incubated in the presence of the C-proteinase inhibitor for 48 hours, and then cell viability and survival were measured as a function of metabolic activity. To examine cellular metabolic activity, 10 μl of WST-1 reagent (Boehringer Mannheim) was added to each well of a 96 well microtiter plate containing quiescent cells that were already in media. The plate was incubated at 37° C. for 120 minutes and removed. The absorbance at 450 nm-650 nm was recorded. […] Controls included untreated healthy cells, and cells killed with 0.1% saponin.
Cytotoxicity was evaluated as a function of cellular survival. Cellular survival was determined by measuring the metabolic activity of the quiescent cells after exposure to the C-proteinase inhibitors. To determine the metabolic activity of the cells, the color change of a trazolium dye over time was examined according to Mossmann, […], Immunol. Methods 65:66; Carmichael, 1987, Cancer Res 47:936, incorporated herein by reference. Healthy cells cleaved the dye producing a colored product that can be quantitated. […] Dead cells had no metabolic activity and no effect on the dye was shown.
The amount of dye cleaved by cells that had been incubated with inhibitor, expressed as a percentage relative to untreated cells, is shown in TABLE 2. Cells that register at 60% or below are considered either very sick or dead. Control cells that were intentionally killed give a value of close to 20%.

Row | SMILES | Percent Metabolic Activity of Fibroblasts Exposed To Various C-Proteinase Inhibitors Relative to Untreated Fibroblasts [%]
1 | COc1ccc(S(=O)(=O)N(CCC(=O)NO)CCc2ccc(Cl)cc2)cc1 [Compound 1300] | 109.9
2 | CC(=O)Nc1ccc(S(=O)(=O)N(CCC(=O)NO)Cc2ccc3c(c2)OCO3)cc1 [Compound 1357] | 108.1
3 | N/C(=N\O)c1cccc(S(=O)(=O)N(CCC(=O)NO)Cc2ccc3c(c2)OCO3)c1 [Compound 1458] | 111.0
4 | N/C(=N\O)c1ccc(S(=O)(=O)N(CCC(=O)NO)CCc2cccs2)cc1 [Compound 1409] | 108.8
5 | CS(=O)(=O)c1ccc(S(=O)(=O)N(CCC(=O)NO)CCc2cccs2)cc1 [Compound 1463] | 110.0
6 | O=C(CCN(CCc1cccs1)S(=O)(=O)c1cccs1)NO [Compound 1425] | 109.5
7 | COc1ccc(S(=O)(=O)N(CCC(=O)NO)C2C3CC4CC(C3)CC2C4)cc1 (stereo not drawn) [Compound 1335] | 113.3
8 | COc1ccccc1CCN(CCC(=O)NO)S(=O)(=O)c1ccc(C(=O)O)cc1 [Compound 1405] | 114.5
9 | O=C(CCN(CCc1cccs1)S(=O)(=O)c1ccc(S(=O)(=O)c2ccccc2)s1)NO [Compound 1419] | 104.7

— patent US6506936B1, “N-substituted arylsulfonylamino hydroxamic acids useful as inhibitors of c-proteinase and for treating or preventing disorders related to unregulated collagen production” (FibroGen, Inc., priority 1999, dated 2003)
